Test results reported in US20250197387A1, “BCL-XL DEGRADERS AND USES THEREOF” (Kymera Therapeutics, Inc., priority 2021, published 2025).
pIC50: −log10 of the molar value.

Tests used:
Format in all cases: cell-based
BCL-XL = molecular target: T1, BCL-XL (Homo sapiens, UniProt Q07817); assay: Bcl-xL ELISA degradation in MOLT-4 cells, 6 h; conditions: for DC50: read-out: Bcl-xL ELISA in MOLT-4 degradation 6 h: Mean external-Abs DC50
T1 construct: endogenous in cells; host or cells: MOLT-4
Protocol: The letter codes for BCL-XL DC50 include: A (<0.01 μM); B (0.01-0.1 μM); C (>[…]); D (>0.5-1.0 μM); and E (>1.0 μM). The letter codes for Dmax % include A (>75%); B (50 to 75%); C (<50%).

MOLT-4 cells = assay: CTG (CellTiter-Glo) cell viability assay, MOLT-4; conditions: Homo sapiens, MOLT-4, 72 h, 3 day incubation, read-out: CTG Cell Viability Assay - MOLT-4 3 day: Average external-IC50
Method in brief: (§1)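 Luminescence from CellTiter-Glo, read after 3 days of compound exposure at 37 °C, gave viability; IC50 values came from three-parameter logistic curves. Cells were plated at 10,000 per well and dosed over nine 1:3 steps topping at 10 μM.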

Caki-2 cells = assay: CTG (CellTiter-Glo) cell viability assay, Caki-2; conditions: Homo sapiens, 72 h, 3 day incubation, read-out: CTG Chempartner - Caki-2 3 day: Average external-IC50
Method in brief: as §1

T1 sequence (Q07817 whole entry): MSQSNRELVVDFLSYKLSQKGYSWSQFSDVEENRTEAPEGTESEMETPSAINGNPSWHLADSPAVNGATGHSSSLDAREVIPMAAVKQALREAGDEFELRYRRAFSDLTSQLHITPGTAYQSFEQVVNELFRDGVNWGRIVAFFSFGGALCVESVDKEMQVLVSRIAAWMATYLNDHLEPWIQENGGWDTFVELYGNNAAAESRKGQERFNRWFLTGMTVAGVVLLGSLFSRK

| Structure (SMILES) | Dmax (BCL-XL) [%] | DC50 (BCL-XL) [µM] | pIC50 (MOLT-4 cells) | pIC50 (Caki-2 cells) |
| --- | --- | --- | --- | --- |
| Cc1ncsc1-c1ccc(CNC(=O)[C@@H]2C[C@@H](O)CN2C(=O)[C@@H](NC(=O)C2CCN(c3ccc(S(=O)(=O)NC(=O)c4nc(N5CCc6cccc(C(=O)Nc7nc8ccccc8s7)c6C5)ccc4-c4cnn(CC5CCCCC5)c4C)cc3F)CC2)C(C)(C)C)cc1 [I-329] | > 75 | 0.01 to 0.1 | > 7.00 | 5.00 to 6.00 |
| Cc1cc(N(C)c2ccc(-c3cnn(CC45CC6CC(CC(C6)C4)C5)c3C)c(C(=O)NS(=O)(=O)CCCCCC(=O)N[C@H](C(=O)N3C[C@H](O)C[C@H]3C(=O)N[C@@H](C)c3ccc(C#N)cc3)C(C)(C)C)n2)nnc1Nc1nc2ccccc2s1 [I-464] | > 75 | 0.01 to 0.1 | 6.00 to 7.00 | < 5.00 |
| Cc1ncsc1-c1ccc(CNC(=O)[C@@H]2C[C@@H](O)CN2C(=O)[C@@H](NC(=O)CCCc2cc(F)cc(S(=O)(=O)NC(=O)c3nc(N4CCc5cccc(C(=O)Nc6nc7ccccc7s6)c5C4)ccc3-c3cnn(CC4CCCCC4)c3C)c2)C(C)(C)C)cc1 [I-374] | > 75 | < 0.01 | > 7.00 | 5.00 to 6.00 |
| C#Cc1ccc(CNC(=O)[C@@H]2C[C@@H](O)CN2C(=O)[C@@H](NC(=O)CCNCCS(=O)(=O)NC(=O)c2nc(N(C)c3cc(C)c(Nc4nc5ccccc5s4)nn3)ccc2-c2cnn(CC34CC5CC(CC(C5)C3)C4)c2C)C(C)(C)C)cc1 [I-429] | > 75 | 0.01 to 0.1 | 6.00 to 7.00 | < 5.00 |
| Cc1ncsc1-c1ccc([C@H](C)NC(=O)[C@@H]2C[C@@H](O)CN2C(=O)[C@@H](NC(=O)CCNCCS(=O)(=O)NC(=O)c2nc(N3CCc4cccc(C(=O)Nc5nc6cccnc6s5)c4C3)ccc2-c2cnn(CC3CCCCC3)c2C)C(C)(C)C)cc1 [I-376] | > 75 | 0.01 to 0.1 | < 5.52 | < 5.00 |
| Cc1ncsc1-c1ccc([C@H](C)NC(=O)[C@@H]2C[C@@H](O)CN2C(=O)[C@@H](NC(=O)CCCc2ccc(S(=O)(=O)NCc3nc(N4CCc5cccc(C(=O)Nc6nc7ccccc7s6)c5C4)ccc3-c3cnn(CC4CCCCC4)c3C)cc2)C(C)(C)C)cc1 [I-307] | < 50 | > 1 | 5.52 to 6.00 | < 5.00 |
| Cc1ncsc1-c1ccc(CNC(=O)[C@@H]2C[C@@H](O)CN2C(=O)[C@@H](NC(=O)CCc2ccc(S(=O)(=O)NC(=O)c3nc(N4CCc5cccc(C(=O)Nc6nc7ccccc7s6)c5C4)ccc3-c3cnn(CC(C)C)c3C)cc2)C(C)(C)C)cc1 [I-318] | > 75 | 0.01 to 0.1 | > 7.00 | 5.00 to 6.00 |
| Cc1ncsc1-c1ccc([C@H](C)NC(=O)[C@@H]2C[C@H](O)CN2C(=O)[C@@H](NC(=O)C2CCN(c3ccc(S(=O)(=O)NC(=O)c4nc(N5CCc6cccc(C(=O)Nc7nc8ccccc8s7)c6C5)ccc4-c4cnn(CC5CCCCC5)c4C)cc3)CC2)C(C)(C)C)cc1 [I-295] | 50 to 75 | 0.01 to 0.1 | 6.00 to 7.00 | 5.00 to 6.00 |
| Cc1ncsc1-c1ccc([C@H](C)NC(=O)[C@@H]2C[C@@H](O)CN2C(=O)[C@@H](NC(=O)CCCCc2ccc(NC(=O)c3nc(N4CCc5cccc(C(=O)Nc6nc7ccccc7s6)c5C4)ccc3-c3cnn(CC4CCCCC4)c3C)cc2)C(C)(C)C)cc1 [I-298] | < 50 | 0.5 to 1 | 6.00 to 7.00 | 5.00 to 6.00 |
| Cc1cc(N(C)c2ccc(-c3cnn(CC4CCCC4)c3C)c(C(=O)NS(=O)(=O)c3ccc(N4CCC(C(=O)N[C@H](C(=O)N5C[C@H](O)C[C@H]5C(=O)N[C@@H](C)c5ccc(-c6scnc6C)cc5)C(C)(C)C)CC4)cc3)n2)nnc1Nc1nc2cccnc2s1 [I-457] | 50 to 75 | 0.5 to 1 | 5.52 to 6.00 | < 5.00 |
| Cc1ncsc1-c1ccc([C@H](C)NC(=O)[C@@H]2C[C@@H](O)CN2C(=O)[C@@H](NC(=O)CCCCCS(=O)(=O)NC(=O)c2nc(N3CCc4cccc(C(=O)Nc5nc6cccnc6s5)c4C3)ccc2-c2cnn(CC3CCCCC3)c2C)C(C)(C)C)cc1 [I-363] | > 75 | 0.01 to 0.1 | > 7.00 | < 5.00 |
| C#Cc1ccc(CNC(=O)[C@@H]2C[C@@H](O)CN2C(=O)[C@@H](NC(=O)CCCCCS(=O)(=O)NC(=O)c2nc(N(C)c3cc(C)c(Nc4nc5cccnc5s4)nn3)ccc2-c2cnn(CC34CC5CC(CC(C5)C3)C4)c2C)C(C)(C)C)cc1 [I-446] | > 75 | 0.01 to 0.1 | 6.00 to 7.00 | < 5.00 |
| Cc1ncsc1-c1ccc([C@H](C)NC(=O)[C@@H]2C[C@@H](O)CN2C(=O)[C@@H](NC(=O)C2CCN(c3ccc(S(=O)(=O)NC(=O)c4nc(N5CCc6cccc(C(=O)Nc7nc8ccccc8s7)c6C5)ccc4-c4cnn(CC5CCCCC5)c4C)cc3CC(=O)O)CC2)C(C)(C)C)cc1 [I-296] | 50 to 75 | 0.1 to 0.5 | 6.00 to 7.00 | 5.00 to 6.00 |
| Cc1ncsc1-c1ccc([C@H](C)NC(=O)[C@@H]2C[C@@H](O)CN2C(=O)[C@H](NC(=O)CCCCCS(=O)(=O)NC(=O)c2nc(N3CCc4cccc(C(=O)Nc5nc6ccccc6s5)c4C3)ccc2-c2cnn(CC3CCCCC3)c2C)C(C)(C)CCO)cc1 [I-366] | > 75 | 0.1 to 0.5 | 5.52 to 6.00 | < 5.00 |
| C#Cc1ccc(CNC(=O)[C@@H]2C[C@@H](O)CN2C(=O)[C@H](NC(=O)CCCCCS(=O)(=O)NC(=O)c2nc(N3CCc4cccc(C(=O)Nc5nc6ccccc6s5)c4C3)ccc2-c2cnn(CC3CCCCC3)c2C)C(C)(C)CCOP(=O)(O)O)cc1 [I-418] | > 75 | 0.1 to 0.5 | 6.00 to 7.00 | < 5.00 |
| Cc1cnc(NC(=O)c2cccc3c2CN(c2ccc(-c4cnn(CC5CCCCC5)c4C)c(C(=O)NS(=O)(=O)CCCCCC(=O)N[C@H](C(=O)N4C[C@H](O)C[C@H]4C(=O)N[C@@H](C)c4ccc(-c5scnc5C)cc4)C(C)(C)C)n2)CC3)s1 [I-460] | > 75 | 0.01 to 0.1 | > 7.00 | < 5.00 |
| C#Cc1ccc(C2(NC(=O)[C@@H]3C[C@@H](O)CN3C(=O)[C@@H](NC(=O)CCCCCS(=O)(=O)NC(=O)c3nc(N4CCc5cccc(C(=O)Nc6nc7cccnc7s6)c5C4)ccc3-c3cnn(CC4CCCCC4)c3C)C(C)(C)C)CC2)cc1 [I-482] | > 75 | < 0.01 | > 7.00 | < 5.00 |
| C#Cc1ccc(CNC(=O)[C@@H]2C[C@@H](O)CN2C(=O)[C@@H](NC(=O)CCCCCS(=O)(=O)NC(=O)c2nc(N3CCc4cccc(C(=O)Nc5nc6ccccc6s5)c4C3)ccc2-c2cnn(CC3CCCCC3)c2C)C(C)(C)CCO)cc1 [I-354] | > 75 | < 0.01 | > 7.00 | < 5.00 |
| C#Cc1ccc(CNC(=O)[C@@H]2C[C@@H](O)CN2C(=O)[C@@H](NC(=O)CCCCCS(=O)(=O)NC(=O)c2nc(N3CCc4cccc(C(=O)Nc5nc6cccnc6s5)c4C3)ccc2-c2cnn(CC3CCCC3)c2C)C(C)(C)C)cc1 [I-445] | > 75 | 0.01 to 0.1 | 6.00 to 7.00 | < 5.00 |
| C#Cc1ccc(CNC(=O)[C@@H]2C[C@@H](O)CN2C(=O)[C@@H](NC(=O)CCCCCS(=O)(=O)NC(=O)c2nc(N3CCc4cccc(C(=O)Nc5nc6ccccc6s5)c4C3)ccc2-c2cnn(CC(C)(C)C)c2C)C(C)(C)C)cc1 [I-471] | > 75 | 0.01 to 0.1 | > 7.00 | < 5.00 |
| Cc1ncsc1-c1ccc([C@H](C)NC(=O)[C@@H]2C[C@@H](O)CN2C(=O)[C@@H](NC(=O)C2CCCN(c3ccc(S(=O)(=O)NC(=O)c4nc(N5CCc6cccc(C(=O)Nc7nc8ccccc8s7)c6C5)ccc4-c4cnn(CC5CCCCC5)c4C)cc3)C2)C(C)(C)C)cc1 (some centres unmarked) [I-419] | > 75 | < 0.01 | > 7.00 | 5.00 to 6.00 |
| Cc1ncsc1-c1ccc([C@H](C)NC(=O)[C@@H]2C[C@@H](O)CN2C(=O)[C@@H](NC(=O)CCCCCS(=O)(=O)NC(=O)c2nc(N3CCc4cccc(C(=O)Nc5nc6ccccc6s5)c4C3)ccc2-c2cnn(CC(C)(C)C)c2C)C(C)(C)C)cc1 [I-465] | > 75 | 0.01 to 0.1 | 6.00 to 7.00 | < 5.00 |
| C#Cc1ccc([C@H](C)NC(=O)[C@@H]2C[C@@H](O)CN2C(=O)[C@@H](NC(=O)CCCCS(=O)(=O)NC(=O)c2nc(N(C)c3cc(C)c(Nc4nc5ccccc5s4)nn3)ccc2-c2cnn(CC34CC5CC(CC(C5)C3)C4)c2C)C(C)(C)C)cc1 [I-368] | > 75 | 0.01 to 0.1 | > 7.00 | < 5.00 |
| Cc1ncsc1-c1ccc([C@H](C)NC(=O)[C@@H]2C[C@@H](O)CN2C(=O)[C@@H](NC(=O)CCCCCCS(=O)(=O)NC(=O)c2nc(N3CCc4cccc(C(=O)Nc5nc6ccccc6s5)c4C3)ccc2-c2cnn(CC3CCCCC3)c2C)C(C)(C)C)cc1 [I-312] | > 75 | 0.01 to 0.1 | > 7.00 | 5.00 to 6.00 |
| Cc1ncsc1-c1ccc(CNC(=O)[C@@H]2C[C@@H](O)CN2C(=O)[C@@H](NC(=O)C2CN(CCCS(=O)(=O)NC(=O)c3nc(N4CCc5cccc(C(=O)Nc6nc7ccccc7s6)c5C4)ccc3-c3cnn(CC4CCCCC4)c3C)C2)C(C)(C)C)cc1 [I-421] | > 75 | 0.01 to 0.1 | 5.52 to 6.00 | < 5.00 |
| Cc1cc(N(C)c2ccc(-c3cnn(CC45CC6CC(CC(C6)C4)C5)c3C)c(C(=O)NS(=O)(=O)CCCCC(=O)N[C@H](C(=O)N3C[C@H](O)C[C@H]3C(=O)N[C@@H](C)c3ccc(-c4scnc4C)cc3)C(C)(C)C)n2)nnc1Nc1nc2ccccc2s1 [I-372] | > 75 | 0.01 to 0.1 | > 7.00 | < 5.00 |
